Measurements taken from article PMC4729137, “Functional analysis of androgen receptor mutations that confer anti-androgen resistance identified in circulating cell-free DNA from prostate cancer patients” (Genome Biology, 2016).
Positions count from the first letter of the chain named.

Legend:
L882I-AR = biological target: T1, L882I-AR (Homo sapiens, UniProt P10275, L882I); format: cell-based; details: AR mutant L882I; transfected PC3 cells; 0.1 nM R1881; drug 0 to 50 μM
T1 sequence (P10275 1-920 L882I): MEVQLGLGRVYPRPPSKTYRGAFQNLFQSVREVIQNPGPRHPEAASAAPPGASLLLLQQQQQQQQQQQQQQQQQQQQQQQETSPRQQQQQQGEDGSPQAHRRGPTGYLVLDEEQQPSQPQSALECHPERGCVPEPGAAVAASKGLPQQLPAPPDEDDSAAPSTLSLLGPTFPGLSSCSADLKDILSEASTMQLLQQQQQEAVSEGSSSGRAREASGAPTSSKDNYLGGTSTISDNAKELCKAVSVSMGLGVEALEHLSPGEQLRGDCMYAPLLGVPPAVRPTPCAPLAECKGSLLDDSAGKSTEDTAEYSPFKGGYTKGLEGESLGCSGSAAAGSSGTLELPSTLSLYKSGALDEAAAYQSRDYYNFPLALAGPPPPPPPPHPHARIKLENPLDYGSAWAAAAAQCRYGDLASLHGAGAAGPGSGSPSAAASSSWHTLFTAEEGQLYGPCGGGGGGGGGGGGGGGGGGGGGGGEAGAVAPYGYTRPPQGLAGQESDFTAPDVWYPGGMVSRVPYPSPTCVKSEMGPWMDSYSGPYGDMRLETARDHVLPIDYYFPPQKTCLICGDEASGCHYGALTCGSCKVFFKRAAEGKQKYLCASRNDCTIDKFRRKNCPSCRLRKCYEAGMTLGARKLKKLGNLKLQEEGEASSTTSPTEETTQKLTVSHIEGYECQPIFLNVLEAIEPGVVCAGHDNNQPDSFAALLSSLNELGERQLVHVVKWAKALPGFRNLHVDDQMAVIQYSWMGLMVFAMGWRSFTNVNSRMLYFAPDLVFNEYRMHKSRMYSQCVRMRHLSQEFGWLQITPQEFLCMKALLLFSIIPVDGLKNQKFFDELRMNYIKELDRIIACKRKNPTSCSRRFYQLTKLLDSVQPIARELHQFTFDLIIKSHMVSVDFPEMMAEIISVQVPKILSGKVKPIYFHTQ
Text: (§1) Full-length human AR (WT-AR) was encoded on a pcDNA3.1 expression plasmid (Life technologies). The LBD point mutations (single and multiple) were generated using the QuikChange II Site-Directed Mutagenesis Kit (Agilent Technologies) as per manufacturer’s instructions using WT-AR as the template. The mutagenic oligonucleotide primers were designed individually with the desired mutation in the middle of the primer with approximately 10 to 15 bases of correct sequence on both sides.
(§2) PC3 cells were seeded and transfected as described above. […] A non-stimulated/no R1881 control was used. After 24 h, cells were lysed and AR-dependent luciferase activity was quantified. Each concentration was assayed in quadruplicate n = 4, with a biological replicate of n = 3. Results were averaged and normalized by expressing them as a percentage of WT AR activity.

E894K-AR = biological target: T2, E894K-AR (Homo sapiens, UniProt P10275, E894K); format: cell-based; details: AR mutant E894K; transfected PC3 cells; 0.1 nM R1881; drug 0 to 50 μM
T2 sequence (P10275 1-920 E894K): T1 sequence (P10275 1-920 L882I) with I882L, E894K
Text: as §1, §2

Agonist response to treatment (L882I-AR): Partial
Agonist response to treatment (E894K-AR): Partial
SMILES: CC(C)(O)C(=O)Nc1ccc([N+](=O)[O-])c(C(F)(F)F)c1 [Hydroxyflutamide, hydroxyflutamide]
